# Measured values published in patent US4165371A, “1,2,3,4,5,6-Hexahydro-1,6-methano-3-benzazocines” (priority 1976, dated 1979).
# What was measured:
# [1] = format: in vivo; details: mouse hot plate, intravenous; for ED50: range in parentheses
# Procedure: (c) The presence of certain N-substituents would confer antagonist activity on members of this new ring system, Tests for analgesic activity were conducted using intravenous administration in the reliable Eddy mouse hot plate assay described in J. Pharmacol. Exp. Ther. […] (1953). The results are set forth in Table 1, together with the activities of morphine and codeine reported as evaluation standards.
# [2] = system: monkeys, physically dependent on morphine; experiment: Physical dependence liability: Single Dose Suppression (SDS) in withdrawn morphine-dependent monkeys; format: in vivo, monkey; details: 2 monkeys
# Procedure: (§1) Physical Dependence Liability testing was conducted on Compounds A, B, C and F of Table 1. For determining Single Dose Suppression (SDS) data monkeys, physically dependent on 3.0 mg/kg of morphine sulfte q6H, were withdrawn until abstinence signs of intermediate severity were present (12-14 hours). The coded drug was injected at this time by persons other than the observer. The monkeys were graded just prior to injection and at intervals of 1/2, 1, 2, 3, 4, 5 and 6 hours after injection. Grades were based on withdrawal intensity or opiate-like depression and side effects, if present. The results are shown in Tables 2 through 5 together with evaluations thereof by Dr. Henry H. Swain at the University of Michigan. Dosages are in mg/kg.
# [3] = system: morphine dependent monkeys; experiment: Physical dependence liability testing, overall evaluation; format: in vivo, monkey; details: for Estimated Physical Dependence Capacity: at doses tested
# Procedure: as §1
# [4] = system: Normal monkeys (not dependent on morphine); experiment: Normal monkeys (not dependent on morphine): attempt to elicit the narcotic syndrome; format: in vivo, monkey
# [5] = system: Non-withdrawn, morphine dependent monkeys; experiment: Attempted precipitation of abstinence in non-withdrawn, morphine-dependent monkeys (NW); format: in vivo, monkey; details: for Effects, precipitation of abstinence signs (NW): 2 monkeys
Structure (SMILES),duration [1] [min],onset [1] [min],peak [1] [min],ED50 [1],Estimated Physical Dependence Capacity [3],"Effects, Single Dose Suppression ([2]; 2.0 mg/kg)",other results
c1ccc(CCN2CCC3CC(C2)c2ccccc23)cc1 (centres unmarked),123,4.7,25.6,8.8 (6.2-12.5) mg/kg,–,–,–
c1ccc2c(c1)C1CCN(CC3CC3)CC2C1 (centres unmarked) [C],–,–,–,–,None,–,"Effects, Single Dose Suppression ([2]; 5.0 mg/kg): No obvious effect; Effects, Single Dose Suppression ([2]; 10.0 mg/kg): No obvious effect; Remarks: direct effects / convulsions ([3]; doses tested): The drug causes convulsions; Dose estimated to be equivalent to 3.0 mg/kg of morphine sulfate ([3]; evaluation in words): Not morphine-like"
C=CCN1CCC2CC(C1)c1ccccc12 (centres unmarked) [F],119,3.2,16.3,19.4 (13.1-28.7) mg/kg,None,No apparent effect,"Effects, Single Dose Suppression ([2]; 1.0 mg/kg): No apparent effect; Effects, Single Dose Suppression ([2]; 4.0 mg/kg): No apparent effect; Effects, Single Dose Suppression ([2]; 8.0 mg/kg): No apparent effect; Effects, Single Dose Suppression ([2]; 16.0 mg/kg): No obvious effect"
CCCN1CCC2CC(C1)c1ccccc12 (centres unmarked),120,3.6,32.1,16.2 (11.7-22.4) mg/kg,–,–,–
c1ccc2c(c1)C1CCNCC2C1 (centres unmarked) [A],97.5,3.3,18.0,4.9 (3.6-6.5) mg/kg,Not morphine-like,No apparent effect,"narcotic signs [4]: no obvious narcotic signs were observed; Narcotic signs in normals ([4]; 8.0 mg/kg, 2 monkeys): No obvious narcotic signs; morphine antagonism [5]: not morphine antagonists; precipitation of the morphine abstinence syndrome [5]: no such result was observed"
"COc1ccc2c3c1O[C@H]1[C@@H](O)C=C[C@H]4[C@@H](C2)N(C)CC[C@@]341 [codeine, reference compound]",–,–,–,7.5 (6.8-8.3) mg/kg,–,–,–
CN1CCC2CC(C1)c1ccccc12 (centres unmarked) [B],104,3.2,20.3,4.2 (2.6-6.7) mg/kg,Little or none at doses tested,No apparent effect,"Effects, Single Dose Suppression ([2]; 4.0 mg/kg): No obvious effect; narcotic signs [4]: no obvious narcotic signs were observed; morphine antagonism [5]: not morphine antagonists; precipitation of the morphine abstinence syndrome [5]: no such result was observed; Effects, precipitation of abstinence signs (NW) ([5]; 4.0 mg/kg): No obvious effect; Effects, precipitation of abstinence signs (NW) ([5]; 8.0 mg/kg): No obvious effect"
"CN1CC[C@]23c4c5ccc(O)c4O[C@H]2[C@@H](O)C=C[C@H]3[C@H]1C5 [morphine, reference compound]",–,–,–,1.2 (0.9-1.3) mg/kg,–,–,–
